Measurements from US11518761B2, “CDPK1 inhibitors, compositions, and methods related thereto” (Vyera Pharmaceuticals, LLC, priority 2017, dated 2022).

Biological target: T. gondii CDPK1 (tgCDPK1) (Toxoplasma gondii, UniProt Q9BJF5)
Experiment: biochemical
Details: at least three independent replicates
Description: Certain of the compounds prepared as described above were assayed to determine their IC50 for inhibition of T. gondii CDPK1 (tgCDPK1). At least three independent replicates of the assay were conducted for each compound tested.

Sequence of T. gondii CDPK1 (tgCDPK1) (Q9BJF5 1-507): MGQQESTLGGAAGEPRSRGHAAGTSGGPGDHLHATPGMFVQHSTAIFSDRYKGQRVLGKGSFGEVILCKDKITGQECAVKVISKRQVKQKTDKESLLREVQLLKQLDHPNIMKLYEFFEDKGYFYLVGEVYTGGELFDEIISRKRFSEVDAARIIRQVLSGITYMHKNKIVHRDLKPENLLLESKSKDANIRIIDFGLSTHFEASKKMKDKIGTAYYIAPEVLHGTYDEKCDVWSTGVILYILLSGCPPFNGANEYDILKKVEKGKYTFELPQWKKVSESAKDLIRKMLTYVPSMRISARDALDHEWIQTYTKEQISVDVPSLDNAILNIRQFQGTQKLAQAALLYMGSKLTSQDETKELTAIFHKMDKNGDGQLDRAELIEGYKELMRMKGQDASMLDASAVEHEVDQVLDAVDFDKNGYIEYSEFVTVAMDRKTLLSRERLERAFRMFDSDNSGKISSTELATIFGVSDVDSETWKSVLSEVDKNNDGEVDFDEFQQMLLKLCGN

Nc1ncnc2c1c(Oc1cc(C(F)(F)F)ccn1)nn2C1CC1 [Compound 77, 1-cyclopropyl-3-((4-(trifluoromethyl)pyridin-2-yl)oxy)-1H-pyrazolo[3,4-d]pyrimidin-4-amine]
IC50: 16.5 nM

Nc1ncnc2c1c(Cc1cccc(Cl)c1)nn2[C@H]1C[C@@H](O)C1 [Compound 130, (cis)-3-(4-amino-3-(3-chlorobenzyl)-1H-pyrazolo[3,4-d]pyrimidin-1-yl)cyclobutan-1-ol]
IC50: 15.4 nM

Nc1ncnc2c1c(Cc1cccc(F)c1)nn2[C@H]1C[C@@H](O)C1 [Compound 132]
IC50: 28.4 nM

Nc1ncnc2c1c(Oc1cccc(Cl)c1)nn2[C@H]1C[C@@H](O)C1 [Compound 152]
IC50: 27.3 nM

Nc1ncnc2c1c(Oc1cccc(F)c1)nn2[C@H]1C[C@@H](O)C1 [Compound 153, (cis)-3-(4-ammo-3-(3-fluorophenoxy)-1H-pyrazolo[3,4-d]pyrimidin-1-yl)cyclobutan-1-ol]
IC50: 33.8 nM

Nc1ncnc2c1c(Cc1c[nH]c3ccc(F)cc13)nn2[C@H]1C[C@H](O)C1 [Compound 154, (trans)-3-(4-amino-3-((5-fluoro-1H-indol-3-yl)methyl)-1H-pyrazolo[3,4-d]pyrimidin-1-yl)cyclobutan-1-ol]
IC50: 11.8 nM

Nc1ncnc2c1c(Oc1cccc(F)c1)nn2[C@H]1C[C@H](O)C1 [Compound 155, (trans)-3-(4-amino-3-(3-fluorophenoxy)-1H-pyrazolo[3,4-d]pyrimidin-1-yl)cyclobulan-1-ol]
IC50: 38 nM

Nc1ncnc2c1c(Oc1cc(Cl)ccn1)nn2[C@H]1C[C@H](F)C1 [Compound 158, 3-[(4-chloropyridin-2-yl)oxy]-1-[(trans)-3-fluorocyclobutyl]-l H-pyrazolo[3,4-d]pyrimidin-4-amine]
IC50: 11.4 nM

Nc1ncnc2c1c(Oc1cccc(C(F)(F)F)c1)nn2[C@H]1C[C@H](F)C1 [Compound 166]
IC50: 28.9 nM

(2-((4-amino-1-cyclopropyl-1H-pyrazolo[3,4-d]pyrimidin-3-yl)oxy)pyrimidin-4-yl)methanol [Compound 86]
IC50: 29.6 nM
